Results taken from patent US12303509B2, “Compounds for the treatment of BRAF-associated diseases and disorders” (Pfizer Inc., priority 2020, dated 2025).
Counter-ions that a name gives are not always drawn.

How the values were obtained:
[1] = MDR1 LLC-PK1 and BCRP MDCKII permeability assay: permeability coefficient (Papp); assay type: in vitro ADME
Text: (§1) Final organic concentration in the assay was 1%.

P-gp (MDR1) = P-gp (MDR1) (Homo sapiens (Human), UniProt P08183); assay: MDR1 LLC-PK1 permeability assay: efflux ratio; assay type: in vitro ADME; conditions: pig
Chain of P-gp (MDR1) (P08183 whole entry, species assumed): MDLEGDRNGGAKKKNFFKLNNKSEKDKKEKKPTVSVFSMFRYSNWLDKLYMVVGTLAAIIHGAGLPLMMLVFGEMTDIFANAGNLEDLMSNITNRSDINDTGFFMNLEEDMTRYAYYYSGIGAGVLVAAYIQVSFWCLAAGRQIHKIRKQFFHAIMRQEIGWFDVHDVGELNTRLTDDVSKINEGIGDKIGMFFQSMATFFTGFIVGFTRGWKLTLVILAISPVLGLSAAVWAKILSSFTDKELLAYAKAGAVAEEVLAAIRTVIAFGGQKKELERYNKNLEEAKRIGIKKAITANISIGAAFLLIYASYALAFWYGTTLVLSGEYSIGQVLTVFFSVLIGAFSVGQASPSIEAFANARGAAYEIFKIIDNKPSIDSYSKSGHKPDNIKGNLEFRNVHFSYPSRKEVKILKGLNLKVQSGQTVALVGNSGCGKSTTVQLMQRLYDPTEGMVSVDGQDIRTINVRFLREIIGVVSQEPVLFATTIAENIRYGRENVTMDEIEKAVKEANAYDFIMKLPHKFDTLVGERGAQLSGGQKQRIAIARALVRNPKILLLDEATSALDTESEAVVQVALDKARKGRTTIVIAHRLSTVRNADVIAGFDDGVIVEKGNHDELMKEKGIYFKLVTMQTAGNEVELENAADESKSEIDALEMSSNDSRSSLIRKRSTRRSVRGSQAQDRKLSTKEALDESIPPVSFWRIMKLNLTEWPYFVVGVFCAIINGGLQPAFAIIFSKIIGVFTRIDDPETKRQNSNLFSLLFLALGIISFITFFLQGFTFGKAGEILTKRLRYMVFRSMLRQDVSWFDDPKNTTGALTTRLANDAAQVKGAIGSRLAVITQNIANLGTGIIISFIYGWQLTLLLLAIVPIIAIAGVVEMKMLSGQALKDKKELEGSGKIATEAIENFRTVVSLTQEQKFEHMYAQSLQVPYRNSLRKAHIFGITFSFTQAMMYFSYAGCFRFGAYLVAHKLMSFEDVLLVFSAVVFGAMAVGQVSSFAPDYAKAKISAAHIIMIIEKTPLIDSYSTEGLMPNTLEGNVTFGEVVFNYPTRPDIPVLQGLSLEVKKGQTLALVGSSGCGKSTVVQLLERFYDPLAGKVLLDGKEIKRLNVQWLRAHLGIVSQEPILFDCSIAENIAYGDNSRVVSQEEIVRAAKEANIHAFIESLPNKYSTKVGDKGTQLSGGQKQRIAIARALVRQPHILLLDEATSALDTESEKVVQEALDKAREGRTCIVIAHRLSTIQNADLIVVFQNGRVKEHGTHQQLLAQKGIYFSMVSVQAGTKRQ
Text: as §1

H1755 cells = assay: Cellular phospho-ERK inhibition assay in H1755 cells; assay type: cell-based; conditions: Homo sapiens, NCI-H1755, 2 hours treatment, read-out: H1755 Cell IC50
In short: (§2)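 In Cell Western detection of phospho-ERK1/2 (Thr202/Tyr204) over GAPDH after 2 h compound exposure (66 pM to 10 μM, 9 points, 0.25% DMSO) of A375 cells in DMEM or H1755 cells in RPMI, both with 10% FBS. Percent of control set by DMSO and 10 μM binimetinib; 4-parameter IC50.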

[2] = PK (free brain-to-free plasma ratio) (mouse); assay type: in vivo; conditions: male CD-1 mice, oral gavage 10 mg/kg, unbound brain-to-unbound plasma, read-out: B/P ratio (free)
Experimental: The ability of representative compounds to penetrate the BBB in mice was determined by evaluating the unbound brain-to-unbound plasma (also referred to as free brain-to-free plasma) concentration ratio in male CD-1 mice.
Brain compound levels were generated from oral mouse PK dosing with typical sampling times of 2, 4, 8, 12 and 24 hours post oral gavage dosing at 10 mg/kg. Brain samples were stored at −20±5° C. prior to analysis. Concentrations of test compound in mouse brain homogenate were determined by liquid chromatography tandem mass spectrometry (LC-MS/MS) following protein precipitation with acetonitrile. A 12-point calibration curve, ranging from 0.5 to 10,000 ng/mL, was prepared in duplicate. A solution of 400 μg/mL of test compound in dimethyl sulfoxide (DMSO) was serially diluted (3-fold) in 100% DMSO, and then 2.5 μL of each standard solution was added to 100 μL of naïve male CD-1 mice brain homogenate. To mimic the extraction in the standard curve, 2.5 μL of DMSO was added to all test samples. Both calibration and test brain homogenate samples were spiked with 10 μL of an IS (1 μg/mL of a structural analog). Brain homogenate was generated by adding 0.75 mL of 4:1 water:MeOH to each brain sample followed by homogenization for 1 minute with bead beater tubes a 6 m/s using an MP Fast Prep-24®. Proteins were precipitated from 100 μL of brain homogenate sample by the addition of 300 μL of acetonitrile. Samples were vortex-mixed for 5 minutes and spun in an Allegra X-12R centrifuge (Beckman Coulter, Fullerton, CA; SX4750A rotor) for 15 min at approximately 1,500×g at 4° C. A 100 μL aliquot of each supernatant was transferred via a 550 μL Personal Pipettor (Apricot Designs, Monrovia, CA) to 96-well plates and diluted 1:1 with HPLC grade water. The resulting plates were sealed with aluminum for LC-MS/MS analysis.
Brain-to-plasma ratios were calculated using the concentration of compound measured in the brain divided by the concentration of compound measured in the plasma. Brain-to-plasma ratios were always generated from a single animal and time point. Free brain-to-free plasma ratios were calculated by multiplying the brain-to-plasma ratio by the in vitro brain homogenate free fraction divided by the in vitro plasma free fraction using the following equation: (B/P)*(Bfu/Pfu). Table C provides the free brain-to-free plasma ratios of compounds disclosed herein.

[3] = molecular target: full-length FLAG-tagged B-Raf(V600E) (Homo sapiens (Human), UniProt P15056, V600E); assay: BRAF V600E enzyme assay (TR-FRET competitive displacement); assay type: binding; conditions: averaged IC50; TR-FRET tracer displacement, 60 min
Chain of full-length FLAG-tagged B-Raf(V600E) (P15056 whole entry V600E): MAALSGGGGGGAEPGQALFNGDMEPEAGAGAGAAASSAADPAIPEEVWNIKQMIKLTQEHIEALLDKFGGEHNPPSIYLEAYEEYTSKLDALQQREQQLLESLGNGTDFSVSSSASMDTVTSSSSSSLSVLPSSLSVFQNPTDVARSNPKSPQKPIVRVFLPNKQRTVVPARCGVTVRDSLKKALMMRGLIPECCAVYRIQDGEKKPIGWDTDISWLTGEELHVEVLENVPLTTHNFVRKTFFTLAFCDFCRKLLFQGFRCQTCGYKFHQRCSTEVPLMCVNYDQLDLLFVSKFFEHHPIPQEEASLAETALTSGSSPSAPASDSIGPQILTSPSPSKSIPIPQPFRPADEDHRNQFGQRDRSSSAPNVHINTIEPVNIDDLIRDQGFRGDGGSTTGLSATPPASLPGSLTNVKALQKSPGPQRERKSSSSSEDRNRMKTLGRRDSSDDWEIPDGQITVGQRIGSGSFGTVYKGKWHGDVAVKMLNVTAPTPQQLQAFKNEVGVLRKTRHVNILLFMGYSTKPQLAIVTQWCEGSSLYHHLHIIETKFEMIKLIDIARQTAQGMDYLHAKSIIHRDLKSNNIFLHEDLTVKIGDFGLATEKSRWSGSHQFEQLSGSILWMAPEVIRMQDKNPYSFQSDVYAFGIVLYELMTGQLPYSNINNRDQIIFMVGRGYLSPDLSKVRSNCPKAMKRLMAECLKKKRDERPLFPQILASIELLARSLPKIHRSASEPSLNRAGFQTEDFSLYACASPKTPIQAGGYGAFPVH
In short: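 TR-FRET tracer competition: compound (top dose 10 μM, 3-fold, 11 points) incubated 60 min at ambient temperature with FLAG-tagged full-length B-Raf(V600E) (5 nM), Eu anti-FLAG cryptate (0.5 nM) and tracer (50 nM), pH 7.4 HEPES/MgCl2 buffer. 665/615 ratio converted to percent of control; IC50 where fitted curve crosses 50 POC.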

A375 cells = assay: Cellular phospho-ERK inhibition assay in A375 cells; assay type: cell-based; conditions: Homo sapiens, A-375, A375 cells (head prints A357), 2 hours treatment, read-out: A357 cell IC50
In short: as §2

BCRP = BCRP (Homo sapiens (Human), UniProt Q9UNQ0); assay: BCRP MDCKII permeability assay: efflux ratio; assay type: in vitro ADME; conditions: dog
Chain of BCRP (Q9UNQ0 whole entry): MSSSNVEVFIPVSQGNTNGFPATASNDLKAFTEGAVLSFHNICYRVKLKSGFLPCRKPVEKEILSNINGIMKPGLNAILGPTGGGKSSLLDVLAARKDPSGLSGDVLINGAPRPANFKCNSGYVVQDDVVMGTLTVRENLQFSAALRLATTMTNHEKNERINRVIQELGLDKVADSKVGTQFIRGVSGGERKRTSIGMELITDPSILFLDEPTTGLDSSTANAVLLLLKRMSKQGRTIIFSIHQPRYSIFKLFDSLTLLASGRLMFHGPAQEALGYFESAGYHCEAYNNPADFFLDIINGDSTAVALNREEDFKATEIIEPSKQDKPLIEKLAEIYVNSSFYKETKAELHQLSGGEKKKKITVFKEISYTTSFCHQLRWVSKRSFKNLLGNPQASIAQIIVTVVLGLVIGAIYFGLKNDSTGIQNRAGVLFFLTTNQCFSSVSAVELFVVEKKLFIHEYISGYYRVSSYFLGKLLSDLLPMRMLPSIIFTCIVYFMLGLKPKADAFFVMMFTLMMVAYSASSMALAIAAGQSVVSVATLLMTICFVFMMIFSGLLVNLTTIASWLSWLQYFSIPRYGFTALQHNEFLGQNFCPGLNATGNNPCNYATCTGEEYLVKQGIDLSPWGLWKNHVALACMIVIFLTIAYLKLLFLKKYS

| Compound | Papp at 2 h, 1 µM [1] [nm/s] | efflux ratio at 2 h, 1 µM (P-gp (MDR1)) | IC50 (H1755 cells) [nM] | Kp [2] | IC50 [3] [nM] | IC50 (A375 cells) [nM] | efflux ratio at 2 h, 1 µM (BCRP) |
| --- | --- | --- | --- | --- | --- | --- | --- |
| Cn1cnc2ccc(Nc3c(F)ccc(NS(=O)(=O)N4CC5CC5C4)c3Cl)c(F)c2c1=O (stereo not shown) [Example 30, N-(2-chloro-4-fluoro-3-((5-fluoro-3-methyl-4-oxo-3,4-dihydroquinazolin-6-yl)amino)phenyl)-3-azabicyclo[3.1.0]hexane-3-sulfonamide trifluoroacetate] | 400 | 1.5 | 42 | 0.51 to 0.64 | 2 | 4 | 1.2 |
| CO[C@@H]1CCN(S(=O)(=O)Nc2ccc(F)c(Oc3ccc4ncn(C)c(=O)c4c3F)c2Cl)C1 [Example 48, (R)-N-(2-chloro-4-fluoro-3-((5-fluoro-3-methyl-4-oxo-3,4-dihydroquinazolin-6-yl)oxy)phenyl)-3-methoxypyrrolidine-1-sulfonamide trifluoroacetate] | 290 | 2.2 | 36 | 0.29 to 0.33 | 3 | 1 | 1.7 |
| Cn1cnc2ccc(Nc3c(F)ccc(NS(=O)(=O)N4CC[C@@H](OC(F)F)C4)c3Cl)c(Cl)c2c1=O [Example 29, (R)-N-(2-chloro-3-((5-chloro-3-methyl-4-oxo-3,4-dihydroquinazolin-6-yl)amino)-4-fluorophenyl)-3-(difluoromethoxy)pyrrolidine-1-sulfonamide] | 280 | 1.7 | 35 | 0.41 to 0.55 | 3 | 9 | 2.9 |
| Cn1cnc2ccc(Oc3c(F)ccc(NS(=O)(=O)N4CCCC4)c3Cl)c(F)c2c1=O [Example 44, N-(2-chloro-4-fluoro-3-((5-fluoro-3-methyl-4-oxo-3,4-dihydroquinazolin-6-yl)oxy)phenyl)pyrrolidine-1-sulfonamide trifluoroacetate] | 340 | 1.4 | 56 | 0.35 to 0.47 | 2 | 3 | 0.9 |
| Cn1cnc2ccc(Nc3c(F)ccc(NS(=O)(=O)N4CCCC4)c3Cl)c(F)c2c1=O [Example 7, N-(2-chloro-4-fluoro-3-((5-fluoro-3-methyl-4-oxo-3,4-dihydroquinazolin-6-yl)amino)phenyl)pyrrolidine-1-sulfonamide trifluoroacetate] | 290 | 1.7 | 31 | 0.37 to 0.61 | 12 | 5 | 2.2 |
| COCC1CN(S(=O)(=O)Nc2ccc(F)c(Nc3ccc4ncn(C)c(=O)c4c3C)c2Cl)C1 [Example 131, N-(2-chloro-3-((3,5-dimethyl-4-oxo-3,4-dihydroquinazolin-6-yl)amino)-4-fluorophenyl)-3-(methoxymethyl)azetidine-1-sulfonamide] | 550 | 2.1 | 38 | 0.3 to 0.5 | 16 | 13 | 1.7 |
| COC1CN(S(=O)(=O)Nc2ccc(F)c(Nc3ccc4ncn(C)c(=O)c4c3Cl)c2Cl)C1 [Example 129, N-(2-chloro-3-((5-chloro-3-methyl-4-oxo-3,4-dihydroquinazolin-6-yl)amino)-4-fluorophenyl)-3-methoxyazetidine-1-sulfonamide] | 370 | 1.6 | 37 | 0.18 to 0.22 | 12 | 9 | 5.3 |
| Cn1cnc2ccc(Nc3c(F)ccc(NS(=O)(=O)N4CC[C@@H](F)C4)c3Cl)c(Cl)c2c1=O [Example 19, (R)-N-(2-chloro-3-((5-chloro-3-methyl-4-oxo-3,4-dihydroquinazolin-6-yl)amino)-4-fluorophenyl)-3-fluoropyrrolidine-1-sulfonamide] | 300 | 2.1 | 39 | 0.61 to 0.83 | 4 | 5 | 1.3 |
| Cn1cnc2ccc(Nc3c(F)ccc(NS(=O)(=O)N4CCCC4)c3Cl)c(Cl)c2c1=O [Example 12, N-(2-chloro-3-((5-chloro-3-methyl-4-oxo-3,4-dihydroquinazolin-6-yl)amino)-4-fluorophenyl)pyrrolidine-1-sulfonamide trifluoroacetate] | 280 | 1.1 | 97 | 0.34 to 0.39 | 7 | 8 | 0.9 |
| Cn1cnc2ccc(Nc3c(F)c(F)cc(NS(=O)(=O)N4CC5CC4C5)c3Cl)c(F)c2c1=O [Example 41, N-(2-chloro-4,5-difluoro-3-((5-fluoro-3-methyl-4-oxo-3,4-dihydroquinazolin-6-yl)amino)phenyl)-2-azabicyclo[2.1.1]hexane-2-sulfonamide trifluoroacetate] | 290 | 1.9 | 42 | 0.35 to 0.45 | 3 | 5 | 2.5 |
| Cn1cnc2ccc(Nc3c(F)ccc(NS(=O)(=O)N4CC5CC4C5)c3Cl)c(Cl)c2c1=O [Example 9, N-(2-chloro-3-((5-chloro-3-methyl-4-oxo-3,4-dihydroquinazolin-6-yl)amino)-4-fluorophenyl)-2-azabicyclo[2.1.1]hexane-2-sulfonamide trifluoroacetate] | 290 | 1.1 | 85 | 0.36 to 0.4 | 7 | 14 | 1.1 |
| Cn1cnc2ccc(Oc3c(F)ccc(NS(=O)(=O)N4CC[C@@H](F)C4)c3Cl)c(F)c2c1=O [Example 20, (R)-N-(2-chloro-4-fluoro-3-((5-fluoro-3-methyl-4-oxo-3,4-dihydroquinazolin-6-yl)oxy)phenyl)-3-fluoropyrrolidine-1-sulfonamide] | 370 | 2.2 | 29 | 0.4 to 0.58 | 3 | 2 | 1.8 |
| CO[C@@H]1CCN(S(=O)(=O)Nc2ccc(F)c(Nc3ccc4ncn(C)c(=O)c4c3Cl)c2Cl)C1 [Example 6, (R)-N-(2-chloro-4-fluoro-3-((5-chloro-3-methyl-4-oxo-3,4-dihydroquinazolin-6-yl)amino)phenyl)-3-methoxypyrrolidine-1-sulfonamide] | 270 | 1.9 | 66 | 0.87 to 1.76 | 13 | 6 | 1.3 |
